The subject of assay [1] is sinoatrial nodal (SAN) pacemaker cells. The experiment in a line: Spontaneous action potential rate of single SAN cells (perforated patch clamp). It is filed as cell-based, mouse. On the procedure: (§1) SAN cells were placed in Tyrode's solution at 36±0.5° C. and were identified by their characteristic morphology (spindle or spider shape) and spontaneous activity. SAN cells were identified electrophysiologically by spontaneous action potentials with a slow depolarizing phase 4 and the hyperpolarization-activated current (If).^27 Spontaneous action potentials, If and ICa were recorded using the perforated (amphotericin B or β-escin in studies requiring dialysis of Ru360 and/or ATP) patch-clamp technique^28 on single SAN cells at 36±0.5° C. in Tyrode's solution. Intracellular Ca^2+ transients were recorded from single SAN cells using Fura-2 AM excited at 340 nm and 380 nm and emitted and 510 nm. Endogenous NADH from single SAN cells was measured by excitation at 350 nm and recording emitted light at 460 nm.^29 Mitochondrial Ca^2+ was measured at 535 nm from mt-pericam expressing SAN cells exited at 415 nm^20. Mitochondrial Ca^2+ entry was measured in cell membrane permeabilized cardiomyocytes isolated from DN-MCU transgenic, wild type mice and from HEK293 cells using Calcium green-5N^30.
Isolation of single SAN cells from mice was performed according to previously published methods^22, 27, 31 with minor modifications. Mice were administered an intraperitoneal injection of avertin (20 μl/g) and monitored until unresponsive. The heart was excised and placed into Tyrode's solution (35° C.), consisting of (mM) 140 NaCl, 5.0 HEPES, 5.5 Glucose, 5.4 KCl, 1.8 CaCl2, and 1.0 MgCl2. The pH was adjusted to 7.4 with NaOH. […] The SAN was cut into smaller pieces, which were transferred and rinsed in a solution containing (mM) 140 NaCl, 5.0 HEPES, 5.5 Glucose, 5.4 KCl, 0.2 CaCl2, 0.5 MgCl2, 1.2 KH2PO4, 50 Taurine and 1 mg/ml bovine serum albumin (BSA), with pH adjusted to 7.4 using NaOH. SAN tissue pieces were digested in 5 ml of solution containing collagenase type I, elastase (Worthington), and protease type XIV (Sigma) for 20-30 min. The tissue was transferred to 10 ml of Kraft-Bruhe (KB) medium containing (mM) 100 potassium glutamate, 5.0 HEPES, 20 Glucose, 25 KCl, 10 potassium aspartate, 2.0 MgSO4, 10 KH2PO4, 20 taurine, 5 creatine, 0.5 EGTA, and 1 mg/ml BSA, with pH adjusted to 7.2 using KOH. The tissue was agitated using a glass pipette for 10 min. The cells were stored at 4° C. and studied within 7 hours.
SAN cells were placed in Tyrode's solution at 36±0.5° C. SAN cells were identified by their characteristic morphology (spindle or spider shape) and spontaneous activity in all single cell experiments. SAN cells were also identified electrophysiologically by typical spontaneous action potentials with slow depolarizing phase 4 and the hyperpolarization-activated current (If) in electrophysiological experiments.
Spontaneous action potentials (APs) and If were recorded using the perforated (amphotericin B or β-escin) patch-clamp technique^28 on single SAN cell at 36±0.5° C. in Tyrode's solution (0.5 mM BaCl2 was added to the bath solution when recording If^32). The pipette was filled with (mM) 130 potassium aspartate, 10 NaCl, 10 HEPES, 0.04 CaCl2, amphotericin B 240 μg/ml with pH adjusted to 7.2 with KOH. SAN cells with stable APs lasting at least 5 min were included in the experiments. β-escin 25 μM was substituted for amphotericin B to allow dialysis of Ru360 or ATP. When recording If, membrane potential was held at −35 mV, the voltage steps were applied for 5 s ranging from −125 mV to −45 mV in 10 mV increments or vice versa.^33 ICa was measured using the perforated patch technique at […] as previously described.^22 ICa was confirmed by its sensitivity to Nifedipine 5 μM. Depolarizing voltage pulses (300 ms in duration) to various potentials (−60 mV to 60 mV in 10 mV step) were applied after 50 ms at −40 mV to inactivate INa from a holding potential of −70 mV. […]
(In general: In patch-clamp work, channel activity is measured electrically.)

In another assay the test system is HCN4 inward current (If). The experiment in a line: If current recording in SAN cells. It is filed as cell-based, mouse. To be noted: Ru360 dialysis. On the procedure: as §1
Spontaneous action potentials (APs) and If were recorded using the perforated (amphotericin B or β-escin) patch-clamp technique^28 on single SAN cell at 36±0.5° C. in Tyrode's solution (0.5 mM BaCl2 was added to the bath solution when recording If^32). […]

On to (μ)[(HCO2)(NH3)4Ru]2OCl3) [Ru360], for which, in assay [1] (dialysis, no ISO), the “Basal SAN cell rates” value is “neither Ru360 nor ATP had any affect”. In assay [1] (freshly isolated SAN cells dialyzed with Ru360 5 μM, vs cells without Ru360), the “SAN cell action potential frequency increases to ISO” value was “significantly reduced”. Also, the “If responses to ISO” value with HCN4 inward current (If) is reported as “not reduced”.

The values above are taken from US20160095837A1, “MODULATION OF MITOCHONDRIAL CALCIUM UNIPORTER ACTIVITY FOR TREATING AND PREVENTING ARRHYTHMIAS” (priority 2014, published 2016).
